Assays:
Assay type in all cases: cell-based
AGTR1 [1] = target: T1, AGTR1 (Homo sapiens, UniProt P30556); test: DiscoveRx IP1 accumulation assay (HTRF), agonist mode, Pathunter CHO-K1 AGTR1 β-arrestin cell line; conditions: for EC50: read-out: IP-1 EC50
T1 construct: host or cells: Pathunter CHO-K1 AGTR1 β-arrestin cell line (CHO-K1)
T1 sequence (P30556 1-359): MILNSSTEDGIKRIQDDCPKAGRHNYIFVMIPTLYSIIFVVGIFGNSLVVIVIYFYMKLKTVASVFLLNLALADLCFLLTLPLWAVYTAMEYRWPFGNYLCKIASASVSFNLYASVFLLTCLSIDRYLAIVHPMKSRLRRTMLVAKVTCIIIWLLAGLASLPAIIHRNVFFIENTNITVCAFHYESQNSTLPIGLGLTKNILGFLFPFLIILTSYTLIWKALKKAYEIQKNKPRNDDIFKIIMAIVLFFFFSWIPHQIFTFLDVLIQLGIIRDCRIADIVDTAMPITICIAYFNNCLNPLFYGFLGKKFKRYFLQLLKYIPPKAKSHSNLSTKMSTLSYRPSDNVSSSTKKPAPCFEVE
Description: In one aspect of the invention, signaling bias of compounds was assessed by comparing the relative activity of compounds to activate both the β-arrestin and Gq signaling pathways. In order to confirm signaling bias, compounds were studied in two different assay formats.
DiscoveRx β-arrestin2 Recruitment and IP1 Assays
Gq activation can be assessed by measuring the accumulation of inositol phosphates (e.g. IP3, IP1) that are liberated following activation of phospholipase C by Gq (Thomsen, Frazer et al. 2005). In the current invention we have utilized the DiscoveRx Pathunter CHO-K1 AGTR1 β-arrestin cell line to also measure IP1 accumulation in response to compounds. IP1 accumulation was measured in both agonist and antagonist modes. In agonist mode, cells are plated as above 14-16 hours before the experiment. The medium is then removed and compounds at varying concentrations added in a final volume of 20 μl. The cells are incubated at 37° C. for 90 min. IP1 accumulation detected using a commercial HTRF assay according to manufacturer's instructions (Cisbio, Bedford, MA). Specifically, 4 μl of D2-conjugate solution (diluted 1:20 in Cisbio HTRF assay buffer) is added to each well, followed by the addition of 4 μl of anti-IP1 cryptate diluted 1:20 in HTRF assay buffer and the plates incubated for 20 min at room temperature. 14 μl from each well is measured using an Envision multi-label reader and data processed using Toolset for Runmaster QCMulti. Concentration-response curves are fitted and EC50s (agonist mode) and IC50s (antagonist mode) estimated using a 4-parameter logistic equation. Compound activities are reported as a relative percentage to the maximal effect of All in the assays.

AGTR1 [2] = target: T1, AGTR1; test: DiscoveRx β-arrestin2 recruitment assay (enzyme complementation, Pathunter CHO-K1 AGTR1 β-arrestin cell line); conditions: DiscoveRx β-arrestin2 recruitment; for DiscoveRx β-arrestin2 Ymax (%): maximal response
Description: In one aspect of the invention, signaling bias of compounds was assessed by comparing the relative activity of compounds to activate both the β-arrestin and Gq signaling pathways. In order to confirm signaling bias, compounds were studied in two different assay formats. DiscoveRx β-arrestin2 Recruitment and IP1 Assays β-arrestin2 recruitment to activated receptors can be assessed using an enzyme complementation method (Zhao, Jones et al. 2008). […] Cells (5000/well) were plated into 1536 well plates (Cellocoat plates, Greiner Bio One, Monroe, NC) 14-16 hours before each experiment in 20 μl DMEM/F12 medium (Thermo-Fisher Scientific, Carlsbad, CA) containing heat-inactivated 1% fetal bovine serum. Subsequently, the compounds of interest were added at varying concentrations to the wells in a volume of 200 nl and the cells incubated for 90 min at 37° C. The detection reagent (10 μl) was added to each well and the plates incubated at room temperature for 1 hour before measurement of chemiluminescence using an EnVision Multilabel Reader (Perkin-Elmer, Waltham, MA). The data are processed using Toolset for Runmaster QCMulti. Concentration-response curves are fitted and EC50s (agonist mode) and IC50s (antagonist mode) estimated using a 4-parameter logistic equation. Compound activities are reported as a relative percentage to the maximal effect of All in the assays.

hAT1R = target: T2, hAT1R (Homo sapiens, UniProt P30556); test: BRET β-arrestin2 biosensor assay, higher receptor expression (hAT1R 5 ng/well), HEK293 cells; conditions: for EC50: High AT1R Expression
T2 sequence (P30556 1-359): T1 sequence (P30556 1-359)

SMILES | IP-1 Ymax (%) (AGTR1 [1]) | EC50 (AGTR1 [1]) [nM] | EC50 (AGTR1 [2]) [nM] | DiscoveRx β-arrestin2 Ymax (%) (AGTR1 [2]) | BRET β-Arrestin2 High AT1R Expression Ymax (%) (hAT1R) | EC50 (hAT1R) [nM]
CCc1nc2c(C)cc(C)nc2n1Cc1ccc(-c2cc(C3CCCO3)ccc2-c2nn[nH]n2)cc1 (single isomer, unassigned) [Example 73, 2-ethyl-5,7-dimethyl-3-((5′-(tetrahydrofuran-2-yl)-2′-(2H-tetrazol-5-yl)-[1,1′-biphenyl]-4-yl)methyl)-3H-imidazo[4,5-b]pyridine] | 11.6 | 5940 | 108 | 26.4 |  | 
CCc1nc2c(C)cc(C)nc2n1Cc1ccc(-c2cc(C3CCCO3)ccc2-c2nn[nH]n2)cc1 (single isomer, unassigned) [Example 74, 2-ethyl-5,7-dimethyl-3-((5′-(tetrahydrofuran-2-yl)-2′-(2H-tetrazol-5-yl)-[1,1′-biphenyl]-4-yl)methyl)-3H-imidazo[4,5-b]pyridine] |  | > 100000 | 391 | 3.9 | 3.2 | > 100000
CCc1nc2c(C)cc(C)nc2n1Cc1ccc(-c2cc(C3CCCCN3)ccc2-c2nn[nH]n2)cc1 (single isomer, unassigned) [Example 75, 2-ethyl-5,7-dimethyl-3-((5′-(piperidin-2-yl)-2′-(2H-tetrazol-5-yl)-[1,1′-biphenyl]-4-yl)methyl)-3H-imidazo[4,5-b]pyridine] |  | > 100000 | 543 | 7.1 | 53.9 | 1120
CCc1nc2c(C)cc(C)nc2n1Cc1ccc(-c2cc(C3CCCCN3)ccc2-c2nn[nH]n2)cc1 (single isomer, unassigned) [Example 76, 2-ethyl-5,7-dimethyl-3-((5′-(piperidin-2-yl)-2′-(2H-tetrazol-5-yl)-[1,1′-biphenyl]-4-yl)methyl)-3H-imidazo[4,5-b]pyridine] |  | > 100000 | 840 | 13.2 |  | 
CCCC1=NC2(CCOC2)C(=O)N1Cc1ccc(-c2cc(-c3ccccc3)ccc2-c2nn[nH]n2)cc1 (single isomer, unassigned) [Example 158, 3-((6′-(2H-tetrazol-5-yl)-[1,1′:3′,1″-terphenyl]-4-yl)methyl)-2-propyl-7-oxa-1,3-diazaspiro[4.4]non-1-en-4-one] | 8.6 | 214 | 191 | 41.6 |  | 
CCc1nc2c(C)cc(C)nc2n1Cc1ccc(-c2cc(-c3ccc(N(C)C)cc3)ccc2-c2nn[nH]n2)cc1 [Example 15] | 2.4 | 21.7 | 22.6 | 14.9 |  | 
CCc1nc2c(C)cc(C)nc2n1Cc1ccc(-c2cc(-c3ccc(C)cc3)ccc2-c2nn[nH]n2)cc1 [Example 18] | 15.4 | 499 | 140 | 54.2 |  | 
CCc1nc2c(C)cc(C)nc2n1Cc1ccc(-c2cc(Nc3ccc(F)cc3)ccc2-c2nn[nH]n2)cc1 [Example 26, 4′-((2-ethyl-5,7-dimethyl-3H-imidazo[4,5-b]pyridin-3-yl)methyl)-N-(4-fluorophenyl)-6-(2H-tetrazol-5-yl)-[1,1′-biphenyl]-3-amine] | 7.5 | 24.2 | 10.8 | 25.0 |  | 
CCc1nc2c(C)cc(C)nc2n1Cc1ccc(-c2cc(-c3ccsc3)ccc2-c2nn[nH]n2)cc1 [Example 55] | 6.8 | 26.8 | 9.3 | 44.9 |  | 
CCc1nc2c(C)cc(C)nc2n1Cc1ccc(-c2cc(N3CC[C@H](C)C3)ccc2-c2nn[nH]n2)cc1 [Example 89] |  | > 100000 | 49.4 | 22.5 |  | 
CCCCC1=NC2(CCCC2)C(=O)N1Cc1ccc(-c2cc(N3CCC(C)(C)CC3)ccc2-c2nn[nH]n2)cc1 [Example 101] |  | > 100000 | 30 | 21.4 |  | 
CCCCC1=NC2(CCCC2)C(=O)N1Cc1ccc(-c2cc(N3CCC(C)C3)ccc2-c2nn[nH]n2)cc1 (stereo not drawn) [Example 103] |  | > 100000 | 112 | 8.8 |  | 
CCCCC1=NC2(CCCC2)C(=O)N1Cc1ccc(-c2cc(-c3cncc(OC)c3)ccc2-c2nn[nH]n2)cc1 [Example 132] |  |  | 87.2 | 14.1 | 22.0 | 496
CCCCc1nc(Cl)c(C(=O)O)n1Cc1ccc(-c2cc(N3CCc4ccccc43)ccc2-c2noc(=O)[nH]2)cc1 [Example 406, 2-butyl-4-chloro-1-((5′-(indolin-1-yl)-2′-(5-oxo-4,5-dihydro-1,2,4-oxadiazol-3-yl)-[1,1′-biphenyl]-4-yl)methyl)-1H-imidazole-5-carboxylic acid] |  |  | 9 | 33.9 | 97.5 | 10.6

Further lines, with some results ahead:

IP-1 Ymax (%) (AGTR1 [1]) | EC50 (AGTR1 [1]) [nM] | EC50 (AGTR1 [2]) [nM] | DiscoveRx β-arrestin2 Ymax (%) (AGTR1 [2]) | SMILES | BRET β-Arrestin2 High AT1R Expression Ymax (%) (hAT1R) | EC50 (hAT1R) [nM]
3.3 | 8.7 | 15.7 | 11.9 | CCc1nc2c(C)cc(C)nc2n1Cc1ccc(-c2cc(-c3ccc4c(ccn4C)c3)ccc2-c2nn[nH]n2)cc1 [Example 17] |  | 
2.3 | 3780 | 322 | 11.9 | CCc1nc2c(C)cc(C)nc2n1Cc1ccc(-c2cc(N3CCCC3=O)ccc2-c2nn[nH]n2)cc1 [Example 28, 1-(4′-((2-ethyl-5,7-dimethyl-3H-imidazo[4,5-b]pyridin-3-yl)methyl)-6-(2H-tetrazol-5-yl)-[1,1′-biphenyl]-3-yl)pyrrolidin-2-one] |  | 
 | > 100000 | 159 | 38.0 | CCc1nc2c(C)cc(C)nc2n1Cc1ccc(-c2cc(N3CCC[C@@H](C)C3)ccc2-c2nn[nH]n2)cc1 [Example 86] |  | 
 | > 100000 | 8.1 | 22.1 | CCc1nc2c(C)cc(C)nc2n1Cc1ccc(-c2cc(N3CCC[C@H](C)C3)ccc2-c2nn[nH]n2)cc1 [Example 88] |  | 
6.3 | 249 | 137 | 21.0 | CCc1nc2c(C)cc(C)nc2n1Cc1ccc(-c2cc(N3CCCCCC3)ccc2-c2nn[nH]n2)cc1 [Example 95, 3-((5′-(azepan-1-yl)-2′-(2H-tetrazol-5-yl)-[1,1′-biphenyl]-4-yl)methyl)-2-ethyl-5,7-dimethyl-3H-imidazo[4,5-b]pyridine] |  | 
12.8 | 219 | 42.3 | 38.8 | CCCCC1=NC2(CCCC2)C(=O)N1Cc1ccc(-c2cc(N3CC4(CC4)c4ccccc43)ccc2-c2nn[nH]n2)cc1 [Example 108] |  | 
4.5 | 26.1 | 9.7 | 22.1 | CCCCC1=NC2(CCCC2)C(=O)N1Cc1ccc(-c2cc(-c3ccccn3)ccc2-c2nn[nH]n2)cc1 [Example 140] |  | 
5.6 | 454 | 348 | 7.0 | CCc1nc2c(C)cc(C)nc2n1Cc1ccc(-c2cc(-c3ccccc3)ccc2C(=O)O)nc1 [Example 201, 3-(5-((2-ethyl-5,7-dimethyl-3H-imidazo[4,5-b]pyridin-3-yl)methyl)pyridin-2-yl)biphenyl-4-carboxylic acid] |  | 
